The values below come from paper PMC10534582, “A Pharmacokinetic Study of Sixteen Major Bioactive Components of Jinshui-Huanxian Granules in Pulmonary Fibrosis Model and Control Rats Using Orbitrap Fusion Mass Spectrometry” (Molecules, 2023).

Data set [1] in a line: Pharmacokinetics of JHG components in pulmonary fibrosis (PF) model rats after intragastric administration of JHGs (plasma, Orbitrap Fusion MS). It is filed as in vivo, Sprague Dawley (SD) rats. The conditions noted are these: for Cmax, PF model group compared with the control group: medium dose selected for comparison; for pharmacokinetic process (versus dosage): low, medium, high doses of JHGs. The procedure: (§1) Healthy male Sprague Dawley (SD) rats of SPF grade (240 ± 20 g) were purchased from Sipeifu (Beijing, China) Biotechnology Co., Ltd. (Beijing, China), Certificate of Conformity No.: SCYK (Beijing, China) 2019-0015, Animal Quality Certificate No.: 110324220102348616. They were housed in the Animal Center of Henan University of Traditional Chinese Medicine, which passed the ethical audit, ethics number: DWLL202208003, breeding Co. 24 °C, relative humidity 50 ± 2%. The animals fasted for 12 h before the experiment and drank water freely. All feeding and experimental studies on experimental animals were in accordance with the regulations on the Management of Experimental Animals in Henan Province.
The PF model in rats was replicated by reference to the conclusion tracheal intubation method in the literature. After the rats were anesthetized, bleomycin (BLM) (5 mg/kg) was used as an induction agent and followed the tracheal intubation method. BLM solution was aspirated with a 1 mL syringe and injected into the indwelling syringe. A total of 0.3 mL of air was rapidly pushed into the syringe, the rats were immediately stroked upright so that the BLM solution was evenly distributed in both lungs. BLM was given on day 0 for modeling, then gavage was taken after day 28, with fasting without water for 12 h before sampling. The histopathological examination was performed to verify the construction of the PF model. The rats were anesthetized by the abdominal cavity, then the lung tissues were violently shocked by opening the chest, and the right lower lobe of the lung was taken and fixed in 4% formaldehyde solution, then dehydrated by sucrose gradient, paraffin-embedded, and sectioned. H&E and Masson staining were performed to observe the degree of alveolitis of lung tissue and the degree of pulmonary fibrosis, respectively. The inflammation and fibrosis of lung tissues was observed under the light microscope.
(§2) Twenty-four healthy male SD rats or PF model rats, weighing 240 ± 20 g, fasted for 12 h before the experiment and drank water freely. Both kinds of rats were randomly divided into four groups. Blank group: equal dose of water by intragastric, low dose; administration group: rats were given the equivalent human dose of JHGs by intragastric, i.e., 10.8 g of raw drug/kg/d (5.70 g/kg/d); medium-dose administration group: 2 times the human equivalent dose of JHGs by intragastric, i.e., 21.6 g of raw drug/kg/d (11.41 g/kg/d); high-dose administration group: 4 times the human equivalent dose of JHG, i.e., 43.2 g of raw drug/kg/d (22.81 g/kg/d). Blood was collected from the tail vein before and 0.083, 0.25, 0.5, 0.75, 1, 1.5, 2, 3, 4, 6, 8, 12, 18, and 24 h after dosing, respectively. A total of 0.5 mL was placed in a heparin sodium centrifuge tube. Whole blood was left for 30 min and then centrifuged in a low-temperature freezing centrifuge (4 °C, 3000 r/min) for 15 min. The upper layer of plasma was collected and stored in a refrigerator at −80 °C.
(§3) We added 50 μL of internal standard solution and 800 μL of methanol, shook for 15 min, then centrifuged at 12,000 r/min for 10 min, took the supernatant, dried in a centrifuge concentrator, added 50 μL of the initial mobile phase to the residue, dissolved, centrifuged, then separated the upper layer of the solution used as the test solution. A total of 5 μL test solution was taken into the sample for analysis. For each compound with a certain dosage, the same procedure is repeated six times in parallel. The concentration in plasma was calculated by the internal standard method.
Accucore C18 (100 mm × 2.1 mm, 2.6 μm) column at 25 °C, the mobile phase was methanol (A)-0.1% formic acid aqueous solution (B). The gradient elution program was 0–4 min (65% B-40% B), 4–5 min (40% B-40% B), 5–6 min (40% B-28% B), and 6–7 min (28% B-19% B), 7–7.5 min (19% B-10% B), 7.5–11 min (10% B-0% B), the flow rate was 0.2 mL/min, and the injection volume was 5 μL. […]

Data set [2] can be described thus: Pharmacokinetics of JHG components in control rats after intragastric administration of JHGs (plasma, Orbitrap Fusion MS). It is filed as in vivo, Sprague Dawley (SD) rats. The conditions noted are these: for pharmacokinetic process (Cmax and AUCs versus dosage): low, medium, high doses of JHGs; for Tmax / AUC(0-inf) / AUC(0-t) / half-life / MRT last / MRT inf / Cmax: male, rat, plasma, po; for MRT last: read-out: MRT(0-t); for MRT inf: read-out: MRT(0-∞); for Cmax: intragastric JHGs. How it is done:
as §1, §2, §3
Accucore C18 (100 mm × 2.1 mm, 2.6 μm) column at 25 °C, the mobile phase was methanol (A)-0.1% formic acid aqueous solution (B). The gradient elution program was 0–4 min (65% B-40% B), 4–5 min (40% B-40% B), 5–6 min (40% B-28% B), and 6–7 min (28% B-19% B), 7–7.5 min (19% B-10% B), 7.5–11 min (10% B-0% B), the flow rate was 0.2 mL/min, and the injection volume was 5 μL.
The ion source was an electrospray ionization source (ESI). Nitrogen acted as a carrier gas. The sheath gas pressure was 35 Arb. The auxiliary gas pressure was 7 Arb. The spray voltage was 3.50 kv(+), 2.50 kv(-). The ion transport tube temperature was regulated at 300 °C. Gasification temperature was 275 °C. The resolution was 50,000. The scanning mode was set as SIM mode. The optimized parameters obtained are in Table 5.
Under the established Orbitrap Fusion MS method, the pharmacokinetics of JHG in rats were studied to investigate the dynamic changes of the active components in rats. The pharmacokinetic parameters of each component in each dosing group were calculated by […] model analysis using Kinetica 5.1 (Innaphase, Waltham, MA, USA) pharmacokinetic analysis software. The pharmacotemporal curves were plotted by the plotting software. SPSS 19.0 (IBM, Armonk, NY, USA) was used to analyze all the parameters. Independent sample tests were performed after natural logarithmic transformation for AUC0–t, Cmax. The nonparametric Mann–Whitney test was applied for Tmax, t½, and MRT0–t. p < 0.05 was considered statistically significant.

[3] abbreviates: Sprague-Dawley, after administration of JHGs, read-out: Tmax of all dosages.
[4] abbreviates: Sprague Dawley, 5.7 g/kg/day, JHGs low dose 5.70 g/kg/d.
The mark [5] stands for this setting: Sprague Dawley, 11.41 g/kg/day, JHGs medium dose 11.41 g/kg/d.
Where [6] appears, read: Sprague Dawley, 22.81 g/kg/day, JHGs high dose 22.81 g/kg/d.

Where two headings read alike, the source gives them in different places.

For the compound `OC[C@H]1O[C@@H](O[C@@H]2OC=C[C@H]3[C@H](O)[C@@H]4O[C@]4(CO)[C@@H]23)[C@H](O)[C@@H](O)[C@@H]1O` [Catalpol], the “Cmax, PF model group compared with the control group” value in data set [1] (PF model vs control rats) is given as “significantly decreased”.
Regarding `CC(C)=CCC[C@](C)(O[C@@H]1O[C@H](CO[C@@H]2O[C@H](CO)[C@@H](O)[C@H](O)[C@H]2O)[C@@H](O)[C@H](O)[C@H]1O)[C@H]1CC[C@]2(C)[C@@H]1[C@H](O)C[C@@H]1[C@@]3(C)CC[C@H](O[C@@H]4O[C@H](CO)[C@@H](O)[C@H](O)[C@H]4O[C@@H]4O[C@H](CO)[C@@H](O)[C@H](O)[C@H]4O)C(C)(C)[C@@H]3CC[C@]12C` [Ginsenoside Rb1], the “pharmacokinetic process (versus dosage)” value in data set [1] (PF model rats) is on record as “linear pharmacokinetic process”. The “Cmax, PF model group compared with the control group” value in data set [1] (PF model vs control rats) is given as “significantly decreased”. Moreover, in data set [1] (PF model vs control rats, p < 0.05), the “AUCs, PF model group compared with the control group” value is given as “significantly decreased”. Further, the “pharmacokinetic process (Cmax and AUCs versus dosage)” value in data set [2] is given as “linear pharmacokinetic process”.
By Tmax is commonly meant the time at which the peak concentration occurs. With `CC(C)=CCC[C@](C)(O[C@@H]1O[C@H](CO[C@@H]2O[C@@H](CO)[C@H](O)[C@H]2O)[C@@H](O)[C@H](O)[C@H]1O)[C@H]1CC[C@]2(C)[C@@H]1[C@H](O)C[C@@H]1[C@@]3(C)CC[C@H](O[C@@H]4O[C@H](CO)[C@@H](O)[C@H](O)[C@H]4O[C@@H]4O[C@H](CO)[C@@H](O)[C@H](O)[C@H]4O)C(C)(C)[C@@H]3CC[C@]12C` [Ginsenoside Rc], the “shape of plasma concentration–time curve” value in data set [1] (PF model group, medium- and high-dose groups, compared to control group) is “double peaks phenomenon”. In addition, the “pharmacokinetic process (Cmax and AUCs versus dosage)” value in data set [2] is “linear pharmacokinetic process”. The Tmax in data set [2] (setting [3]) is at most 2 h.
On to `COc1ccc([C@@H]2CC(=O)c3c(O)cc(O[C@@H]4O[C@H](CO[C@@H]5O[C@@H](C)[C@H](O)[C@@H](O)[C@H]5O)[C@@H](O)[C@H](O)[C@H]4O)cc3O2)cc1O` [Hesperidin], for which the “Tmax, PF model group compared with the control group” value in data set [1] (PF model vs control rats) was “decreased significantly”.
For the compound `COc1ccc(-c2oc3c(CC=C(C)C)c(O[C@@H]4O[C@H](CO)[C@@H](O)[C@H](O)[C@H]4O)cc(O)c3c(=O)c2O[C@@H]2O[C@@H](C)[C@H](O)[C@@H](O)[C@H]2O)cc1` [Icariin], the Tmax was at most 2 h in data set [1] (male, Sprague-Dawley, rat, plasma, po, PF model rats, after administration of JHGs, read-out: Tmax of all dosages) and at most 2 h in data set [2] (setting [3]). Moreover, in data set [2], the “pharmacokinetic process (Cmax and AUCs versus dosage)” value was “linear pharmacokinetic process”.
The Vss is a proportionality between amount in the body and measured concentration, not a real space. Broadly, the AUC(0-inf) is the area under the concentration-time curve extrapolated to infinity. For orientation: AUC(0-t) means exposure summed from dosing to a finite time, without extrapolation to infinity. By half-life is commonly meant how long it takes for the measured level to halve. Read a low half-life as fast loss. By Cmax is commonly meant the maximum level reached in the sampled fluid or tissue. For the compound `C[C@@H]1O[C@@H](O[C@@H]2[C@@H](O)[C@H](OCCc3ccc(O)c(O)c3)O[C@H](COC(=O)/C=C/c3ccc(O)c(O)c3)[C@H]2O)[C@H](O)[C@H](O)[C@H]1O` [Isoacteoside], the “pharmacokinetic process (versus dosage)” value in data set [1] (PF model rats) is recorded as “linear pharmacokinetic process”. The “Tmax, PF model group compared with the control group” value in data set [1] (PF model vs control rats) was “increased about three times”. In addition, the values for the Clearances in data set [2] (JHGs high dose 22.81 g/kg/d), in data set [2] (JHGs low dose 5.70 g/kg/d) and in data set [2] (JHGs medium dose 11.41 g/kg/d) were 18.7 ± 3.83 mL/min/kg, 15.2 ± 3 mL/min/kg and 15.7 ± 1.7 mL/min/kg, respectively. Moreover, the Vss in data set [2] (JHGs high dose 22.81 g/kg/d) is 9.42 ± 1.03 L; in data set [2] (JHGs low dose 5.70 g/kg/d), 8.97 ± 2.22 L; in data set [2] (JHGs medium dose 11.41 g/kg/d), 9.67 ± 3.39 L. In data set [2], the “pharmacokinetic process (Cmax and AUCs versus dosage)” value was “linear pharmacokinetic process”. In addition, the AUC(0-inf) in data set [2] (setting [4]) turned out to be 35.8 ± 5.5 ng·h/mL; in data set [2] (setting [5]), 61.5 ± 8.17 ng·h/mL; in data set [2] (setting [6]), 104 ± 22.4 ng·h/mL. For the same compound, the AUC(0-t) in data set [2] (setting [4]) worked out at 32.2 ± 4.75 ng·h/mL; in data set [2] (setting [5]), 54.9 ± 7.53 ng·h/mL; in data set [2] (setting [6]) it was 96.4 ± 18.1 ng·h/mL. The half-life in data set [2] (setting [4]) was 6.86 ± 0.48 h; in data set [2] (setting [5]), 8.24 ± 4.54 h; in data set [2] (setting [6]), 6.1 ± 0.77 h. In addition, the MRT last was 7.15 ± 0.14 h in data set [2] (setting [4]), 7.03 ± 0.29 h in data set [2] (setting [5]) and 6.64 ± 0.33 h in data set [2] (setting [6]). In addition, the MRT inf in data set [2] (setting [4]) came to 9.81 ± 0.84 h; in data set [2] (setting [5]), 10.4 ± 4.06 h; in data set [2] (setting [6]), 8.58 ± 0.98 h. Besides, the Tmax in data set [2] (Sprague Dawley, 5.7 g/kg/day, JHGs low dose 5.70 g/kg/d, read-out: Tmax) turned out to be 1 h; in data set [2] (Sprague Dawley, 11.41 g/kg/day, JHGs medium dose 11.41 g/kg/d, read-out: Tmax), 2 h; in data set [2] (Sprague Dawley, 22.81 g/kg/day, JHGs high dose 22.81 g/kg/d, read-out: Tmax), 3 h. In addition, the Cmax turned out to be 5.67 ± 1 ng/mL in data set [2] (Sprague Dawley, 5.7 g/kg/day, low dose 5.70 g/kg/d, n=6 (1st of 3 stacked values)); 9.31 ± 1.05 ng/mL in data set [2] (Sprague Dawley, 11.41 g/kg/day, medium dose 11.41 g/kg/d, n=6 (2nd of 3 stacked values)); 18.4 ± 1.98 ng/mL in data set [2] (Sprague Dawley, 22.81 g/kg/day, high dose 22.81 g/kg/d, n=6 (3rd of 3 stacked values)).
